We go through 4 molecules from US20260109944A1, “Culture Method for Organoids” (Koninklijke Nederlandse Akademie Van Wetenschappen, priority 2014, published 2026).

Data set [1] deals with human liver organoids. The data set is described as follows: Long-term expansion (passaging) of human liver organoids. It counts as cell-based. Here is the method: Human liver cells isolated by collagenase dissociation were dissociated to single cell, counted and 3000 or 10000 cells were seeded per well in a 48 well plate. Mouse liver culture medium (ERFHNic) or medium supplemented with A8301 or A8301 and BMP7 or A8301 and BMP7 and Forskolin (FSK) was overlaid as indicated and organoids were allowed to grow. The cultures were split every week 7-10 days at a ratio of 1:4-1:6 dilution.
Human liver organoids were seeded in mouse medium supplemented with A8301 and with one of the CAMP activators as indicated in FIG. 4. Cholera toxin was used at a concentration of 100 ng/ml. Only the cultures that were treated with CAMP activators were able to be expanded >2 months (P8).
Liver cells were isolated by collagenase digestion as follows: tissue (0.5-1 cm^3) was minced, rinsed 2× with DMEM (Gibco) 1% FCS and incubated with the digestion solution (2.5 mg/ml collagenase D (Roche)+0.1 mg/ml DNase I (Sigma) in EBSS (Hyclone, Thermoscientific), for […] at 37° C. The digestion was stopped by adding cold DMEM 1% FCS and the suspension was then filtered through a 70 um Nylon cell strainer and spun 5 min at 300-400 g. The pellet was resuspended in DMEM 1% FCS and kept cold. Any material retained on the strainer was further digested for 10 min in Accutase (Innovative Cell Technologies) at 37° C. Then, the digestion was stopped and the cells were collected as before. The different fractions (collagenase and accutase) were mixed and washed with cold Advanced DMEM/F12 and spun at 300-400 g for 5 min. The cell pellet was mixed with Matrigel (BD bioscience) and 3000-10000 cells were seeded per well in a 48 well/plate. After Matrigel had solidified, culture medium was added. Culture media was based on AdDMEM/F12 (Invitrogen) supplemented with N2 and B27 without retinoic acid (both from Gibco), 1.25 mM N-Acetylcysteine (Sigma). 10 nM gastrin (Sigma) and the growth factors: 50 ng/ml EGF (Peprotech), 10% RSPO1 conditioned media (home-made), 100 ng/ml FGF10 (Peprotech). 25 ng/ml HGF, 10 mM Nicotinamide (Sigma), 5 uM TGF-beta inhibitor (A83.01 (Tocris)) and 10 uM FSK (Tocris). For the establishment of the culture, the first 3 days after isolation the medium was supplemented with 25 ng/ml Noggin (Peprotech), 30% Wnt CM (home-made prepared as described in (Barker and Huch 2010)), 10 uM Rock inhibitor (Y27632) and hES Cell cloning Recovery solution (Stemgent). Then, the medium was changed into a medium without Noggin, Wnt. Y27632, hES Cell cloning Recovery solution (Stemgent) while 25 ng/ml BMP7 (Peprotech) were supplemented on top. One week-10 days organoids were removed from the Matrigel, mechanically dissociated into small fragments, and transferred to fresh Matrigel. Passage was performed in 1:4-1:8 split ratio once per week for at least 6 months. […]

Data set [2] has as its system Lgr5 cells in human liver cultures. As to the kind of experiment: Flow cytometry analysis of LGR5 positive cells. The format is cell-based. Conditions: cultured >4 weeks in the presence of FSK; not readily detected in absence; 2 donor cultures. Here is the method:
(§1) Lgr5 expression was analysed in cultures grown in our defined culture medium by immunofluorescence and flow cytometry analysis. (FIG. 5A) Confocal image of a human liver organoid showing that the organoids are formed by epithelial derived cells positive for EPCAM (blue). The stem cell marker Lgr5 (green) was restricted to a subset of cells within the organoid, while the Wnt target gene EPHB2 (red) was broadly expressed, but colocalized with LGR5 as expected. Staining was performed on single cells isolated from a culture that had been cultured for >4 weeks in the presence or absence of FSK. Only in the presence of FSK Lgr5 cells could be readily detected as a 1-3% of the culture population. Experiment was performed in 2 independent human liver donor cultures. (FIG. 5C) qPCR analysis of the expression of LGR5 in 4 week old cultures treated in the presence or absence of FSK.
Exponentially growing organoids were cultured for at least 5 days in the presence or absence of FSK. Then, organoids were dissociated into single cells using Accutase, resuspended in DMEM+2% FBS and incubated with Lgr5 antibody (AP2745d, Abgent) for 45 min. […] Cells were analyzed with a BD FACS Calibur (Becton-Dickinson); FSC: propidium iodide was used to label dead cells for exclusion and pulse-width gating to exclude cell doublets.
On the technique in general: Flow cytometry measures light scatter and fluorescence of single cells or particles in a stream.

Data set [3] relates to LGR5 expression in human liver cultures. The data set is described as follows: qPCR analysis of LGR5 expression. The format is cell-based. Conditions: 4 week old cultures, presence vs absence of FSK. Here is the method: as §1
In general terms: Quantitative PCR measures a nucleic acid by following its amplification.

Data set [4] concerns cAMP pathway. Conditions: compared with 8-BR-cAMP and forskolin; cited from earlier work.
Data set [5] relates to human liver organoid cultures (ALB, CYP3A4 expression). The note with it: hepatocytes.
[6] abbreviates: culture medium supplemented with A8301 combined with FSK, split ratio 1:4-1:6 every 7-10 days.

Regarding `Cc1cccc(-c2nn(C(=S)Nc3ccccc3)cc2-c2ccnc3ccccc23)n1` [A83-01, 3-(6-Methyl-2-pyridinyl)-N-phenyl-4-(4-quinolinyl)-1H-pyrazole-1-carbothioamide], in data set [1] (medium supplemented with A8301 only (no FSK)), the long-term expansion outcome is reported as “arrested proliferation after some weeks in culture”.

In the case of `C=C[C@@]1(C)CC(=O)[C@]2(O)[C@@]3(C)[C@@H](O)CCC(C)(C)[C@@H]3[C@H](O)[C@H](OC(C)=O)[C@@]2(C)O1` [FSK, forskolin], in data set [1] (setting [6]), the “number of passages the cultures were able to grow” value is more than 18 passages and the “time the cultures were able to grow” value is more than 5 months. Further, the “Lgr5 cells as % of the culture population” value in data set [2] is listed as 1-3%. Besides, in data set [3], the “LGR5 expression levels, upregulation upon treatment” value is listed as 2-3 ×.

On to `C=C[C@@]1(C)CC(=O)[C@]2(O)[C@@]3(C)[C@@H](O)CCC(C)(C)[C@@H]3[C@H](OC(=O)CCN(C)C)[C@H](OC(C)=O)[C@@]2(C)O1.Cl` [NKH477], for which, in data set [4], the “relative potency as cAMP pathway activator” value was “generally more potent than 8-BR-CAMP and forskolin”.

B1: BMP7: BMP pathway activator; induces the phosphorylation of SMAD1 and SMAD5 (protein, UniProt P18075 293-431, looked up)
Bone morphogenetic protein 7: STGSKQRSQNRSKTPKNQEALRMANVAENSSSDQRQACKKHELYVSFRDLGWQDWIIAPEGYAAYYCEGECAFPLNSYMNATNHAIVQTLVHFINPETVPKPCCAPTQLNAISVLYFDDSSNVILKKYRNMVVRACGCH
For B1, the long-term expansion outcome in data set [1] (medium supplemented with BMP7 and A8301 (no FSK)) is “arrested proliferation after some weeks in culture”. Moreover, the “effect on expression of hepatocyte markers ALB and CYP3A4” value in data set [5] was “slightly facilitated the expression of hepatocyte markers ALB and CYP3A4”.
